Measurements as given in ChEMBL document CHEMBL4507302, “Data for DCP probe TP-020” (2021).

Columns and labels:
[1] = molecular target: Serine/threonine-protein kinase SIK3 (Homo sapiens) (UniProt Q9Y2K2); conditions: Compound concentration 1000.0 nM
[2] = molecular target: Homeodomain-interacting protein kinase 1 (Homo sapiens) (UniProt Q86Z02); conditions: Compound concentration 1000.0 nM
[3] = molecular target: Serine/threonine-protein kinase OSR1 (Homo sapiens) (UniProt O95747); conditions: Compound concentration 1000.0 nM
[4] = molecular target: cAMP-dependent protein kinase catalytic subunit PRKX (Homo sapiens) (UniProt P51817); conditions: Compound concentration 1000.0 nM
[5] = molecular target: Alpha-1B adrenergic receptor (Homo sapiens) (UniProt P35368); conditions: Compound concentration 10.0 uM
[6] = molecular target: Beta-2 adrenergic receptor (Homo sapiens) (UniProt P07550); conditions: Compound concentration 10.0 uM
[7] = molecular target: Aurora kinase B (Homo sapiens) (UniProt Q96GD4); conditions: Compound concentration 1000.0 nM
[8] = molecular target: GABA-A receptor; anion channel (Rattus norvegicus) (UniProt O09028+P15431+P18506+P18508+P19969+P20236+P23574+P23576+P28471+P28473+P30191+P62813+P63079+P63138+Q91ZM7+Q9ES14); conditions: Compound concentration 10.0 uM
[9] = molecular target: Serine/threonine-protein kinase PAK 1 (Homo sapiens) (UniProt Q13153); conditions: Compound concentration 1000.0 nM
[10] = molecular target: Ribosomal protein S6 kinase alpha-5 (Homo sapiens) (UniProt O75582); conditions: Compound concentration 1000.0 nM
[11] = system: Receptor-type tyrosine-protein kinase FLT3 (Homo sapiens), P36888 [D835V]; conditions: Compound concentration 1000.0 nM
[12] = molecular target: Dual specificity mitogen-activated protein kinase kinase 4 (Homo sapiens) (UniProt P45985); conditions: Compound concentration 1000.0 nM
[13] = molecular target: Mitogen-activated protein kinase kinase kinase 14 (Homo sapiens) (UniProt Q99558); conditions: Compound concentration 1000.0 nM
[14] = molecular target: BDNF/NT-3 growth factors receptor (Homo sapiens) (UniProt Q16620); conditions: Compound concentration 1000.0 nM
[15] = molecular target: Vascular endothelial growth factor receptor 1 (Homo sapiens) (UniProt P17948); conditions: Compound concentration 1000.0 nM
[16] = molecular target: Casein kinase I isoform gamma-1 (Homo sapiens) (UniProt Q9HCP0); conditions: Compound concentration 1000.0 nM
[17] = molecular target: Delta-type opioid receptor (Homo sapiens) (UniProt P41143); conditions: Compound concentration 10.0 uM
[18] = molecular target: Serine/threonine-protein kinase 32C (Homo sapiens) (UniProt Q86UX6); conditions: Compound concentration 1000.0 nM
[19] = molecular target: Ribosomal protein S6 kinase alpha-6 (Homo sapiens) (UniProt Q9UK32); conditions: Compound concentration 1000.0 nM
[20] = system: Phosphatidylinositol 4,5-bisphosphate 3-kinase catalytic subunit alpha isoform (Homo sapiens), P42336 [H1047L]; conditions: Compound concentration 1000.0 nM
[21] = molecular target: D(4) dopamine receptor (Homo sapiens) (UniProt P21917); conditions: Compound concentration 10.0 uM
[22] = molecular target: Serine/threonine-protein kinase MARK1 (Homo sapiens) (UniProt Q9P0L2); conditions: Compound concentration 1000.0 nM
[23] = molecular target: Mitogen-activated protein kinase 8 (Homo sapiens) (UniProt P45983); conditions: Compound concentration 1000.0 nM
[24] = molecular target: Cyclin-dependent kinase 18 (Homo sapiens) (UniProt Q07002); conditions: Compound concentration 1000.0 nM
[25] = molecular target: Epithelial discoidin domain-containing receptor 1 (Homo sapiens) (UniProt Q08345); conditions: Compound concentration 1000.0 nM
[26] = molecular target: Fibroblast growth factor receptor 2 (Homo sapiens) (UniProt P21802); conditions: Compound concentration 1000.0 nM
[27] = system: Proto-oncogene tyrosine-protein kinase receptor Ret (Homo sapiens), P07949 [V804M]; conditions: Compound concentration 1000.0 nM
[28] = molecular target: Histamine H1 receptor (Homo sapiens) (UniProt P35367); conditions: Compound concentration 10.0 uM
[29] = system: eIF-2-alpha kinase GCN2 (Homo sapiens), Q9P2K8 [S808G]; conditions: Compound concentration 1000.0 nM
[30] = molecular target: Serine/threonine-protein kinase 10 (Homo sapiens) (UniProt O94804); conditions: Compound concentration 1000.0 nM
[31] = molecular target: Insulin receptor (Homo sapiens) (UniProt P06213); conditions: Compound concentration 1000.0 nM
[32] = molecular target: Phosphorylase b kinase regulatory subunit alpha, liver isoform (Homo sapiens) (UniProt P46019); conditions: Compound concentration 1000.0 nM
[33] = molecular target: Serine/threonine-protein kinase TAO1 (Homo sapiens) (UniProt Q7L7X3); conditions: Compound concentration 1000.0 nM
[34] = molecular target: MAP/microtubule affinity-regulating kinase 4 (Homo sapiens) (UniProt Q96L34); conditions: Compound concentration 1000.0 nM
[35] = molecular target: Mitogen-activated protein kinase 1 (Homo sapiens) (UniProt P28482); conditions: Compound concentration 1000.0 nM
[36] = molecular target: Tyrosine-protein kinase Lyn (Homo sapiens) (UniProt P07948); conditions: Compound concentration 1000.0 nM
[37] = molecular target: Cyclin-dependent kinase 2 (Homo sapiens) (UniProt P24941); conditions: Compound concentration 1000.0 nM
[38] = molecular target: Dual specificity protein kinase TTK (Homo sapiens) (UniProt P33981); conditions: Compound concentration 1000.0 nM
[39] = system: Epidermal growth factor receptor (Homo sapiens), P00533 [L861Q]; conditions: Compound concentration 1000.0 nM
[40] = molecular target: Serine/threonine-protein kinase MARK2 (Homo sapiens) (UniProt Q7KZI7); conditions: Compound concentration 1000.0 nM
[41] = molecular target: Maternal embryonic leucine zipper kinase (Homo sapiens) (UniProt Q14680); conditions: Compound concentration 1000.0 nM
[42] = molecular target: Serine/threonine-protein kinase Nek7 (Homo sapiens) (UniProt Q8TDX7); conditions: Compound concentration 1000.0 nM
[43] = molecular target: Serine/threonine-protein kinase RIO1 (Homo sapiens) (UniProt Q9BRS2); conditions: Compound concentration 1000.0 nM
[44] = molecular target: Hormonally up-regulated neu tumor-associated kinase (Homo sapiens) (UniProt P57058); conditions: Compound concentration 1000.0 nM

Chain of cAMP-dependent protein kinase catalytic subunit PRKX (Homo sapiens) (P51817 whole entry): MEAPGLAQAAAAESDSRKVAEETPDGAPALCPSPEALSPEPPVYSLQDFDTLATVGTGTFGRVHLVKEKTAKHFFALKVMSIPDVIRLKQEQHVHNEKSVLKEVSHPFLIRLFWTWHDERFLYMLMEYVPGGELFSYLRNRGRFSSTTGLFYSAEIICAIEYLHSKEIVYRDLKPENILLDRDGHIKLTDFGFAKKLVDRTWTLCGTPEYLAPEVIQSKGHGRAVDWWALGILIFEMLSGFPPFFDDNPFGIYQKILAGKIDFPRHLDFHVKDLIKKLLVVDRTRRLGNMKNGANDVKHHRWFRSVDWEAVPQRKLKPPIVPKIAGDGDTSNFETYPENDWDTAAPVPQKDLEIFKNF
Chain of Aurora kinase B (Homo sapiens) (Q96GD4 whole entry): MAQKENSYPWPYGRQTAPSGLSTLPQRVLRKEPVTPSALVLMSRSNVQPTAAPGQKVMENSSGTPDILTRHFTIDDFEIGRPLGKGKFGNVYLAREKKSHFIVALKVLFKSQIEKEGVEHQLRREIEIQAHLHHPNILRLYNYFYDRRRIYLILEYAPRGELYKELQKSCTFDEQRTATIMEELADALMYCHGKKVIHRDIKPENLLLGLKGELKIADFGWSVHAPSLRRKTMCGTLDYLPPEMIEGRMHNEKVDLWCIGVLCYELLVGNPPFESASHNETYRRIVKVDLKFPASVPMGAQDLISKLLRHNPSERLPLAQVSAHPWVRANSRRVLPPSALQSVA
Chain of Epithelial discoidin domain-containing receptor 1 (Homo sapiens) (Q08345 whole entry, the tested form may be a part): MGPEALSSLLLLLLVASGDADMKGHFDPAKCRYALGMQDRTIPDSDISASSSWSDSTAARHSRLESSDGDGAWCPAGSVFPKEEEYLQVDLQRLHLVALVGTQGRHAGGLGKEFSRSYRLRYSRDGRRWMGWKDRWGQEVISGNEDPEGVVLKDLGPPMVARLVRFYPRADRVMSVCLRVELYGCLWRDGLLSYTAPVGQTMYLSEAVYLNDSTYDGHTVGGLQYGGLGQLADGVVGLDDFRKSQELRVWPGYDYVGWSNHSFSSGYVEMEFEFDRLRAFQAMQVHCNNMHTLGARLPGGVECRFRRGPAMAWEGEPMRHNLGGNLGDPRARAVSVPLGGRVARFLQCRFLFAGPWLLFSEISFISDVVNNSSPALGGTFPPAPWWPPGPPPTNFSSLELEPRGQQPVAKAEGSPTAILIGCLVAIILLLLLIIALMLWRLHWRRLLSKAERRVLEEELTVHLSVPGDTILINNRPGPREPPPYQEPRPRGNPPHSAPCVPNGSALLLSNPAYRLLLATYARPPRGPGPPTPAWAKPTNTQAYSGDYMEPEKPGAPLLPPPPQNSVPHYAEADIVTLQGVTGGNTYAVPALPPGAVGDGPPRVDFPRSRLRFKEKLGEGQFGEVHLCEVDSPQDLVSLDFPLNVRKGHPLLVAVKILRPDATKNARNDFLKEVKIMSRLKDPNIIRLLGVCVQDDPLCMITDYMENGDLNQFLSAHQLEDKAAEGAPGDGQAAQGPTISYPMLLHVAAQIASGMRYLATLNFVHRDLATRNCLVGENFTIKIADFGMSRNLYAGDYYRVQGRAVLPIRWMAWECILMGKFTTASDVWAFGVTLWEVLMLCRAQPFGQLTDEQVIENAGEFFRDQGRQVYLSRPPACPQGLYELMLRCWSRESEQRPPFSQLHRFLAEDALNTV
Chain of Proto-oncogene tyrosine-protein kinase receptor Ret (Homo sapiens), P07949 [V804M] (P07949 whole entry V804M): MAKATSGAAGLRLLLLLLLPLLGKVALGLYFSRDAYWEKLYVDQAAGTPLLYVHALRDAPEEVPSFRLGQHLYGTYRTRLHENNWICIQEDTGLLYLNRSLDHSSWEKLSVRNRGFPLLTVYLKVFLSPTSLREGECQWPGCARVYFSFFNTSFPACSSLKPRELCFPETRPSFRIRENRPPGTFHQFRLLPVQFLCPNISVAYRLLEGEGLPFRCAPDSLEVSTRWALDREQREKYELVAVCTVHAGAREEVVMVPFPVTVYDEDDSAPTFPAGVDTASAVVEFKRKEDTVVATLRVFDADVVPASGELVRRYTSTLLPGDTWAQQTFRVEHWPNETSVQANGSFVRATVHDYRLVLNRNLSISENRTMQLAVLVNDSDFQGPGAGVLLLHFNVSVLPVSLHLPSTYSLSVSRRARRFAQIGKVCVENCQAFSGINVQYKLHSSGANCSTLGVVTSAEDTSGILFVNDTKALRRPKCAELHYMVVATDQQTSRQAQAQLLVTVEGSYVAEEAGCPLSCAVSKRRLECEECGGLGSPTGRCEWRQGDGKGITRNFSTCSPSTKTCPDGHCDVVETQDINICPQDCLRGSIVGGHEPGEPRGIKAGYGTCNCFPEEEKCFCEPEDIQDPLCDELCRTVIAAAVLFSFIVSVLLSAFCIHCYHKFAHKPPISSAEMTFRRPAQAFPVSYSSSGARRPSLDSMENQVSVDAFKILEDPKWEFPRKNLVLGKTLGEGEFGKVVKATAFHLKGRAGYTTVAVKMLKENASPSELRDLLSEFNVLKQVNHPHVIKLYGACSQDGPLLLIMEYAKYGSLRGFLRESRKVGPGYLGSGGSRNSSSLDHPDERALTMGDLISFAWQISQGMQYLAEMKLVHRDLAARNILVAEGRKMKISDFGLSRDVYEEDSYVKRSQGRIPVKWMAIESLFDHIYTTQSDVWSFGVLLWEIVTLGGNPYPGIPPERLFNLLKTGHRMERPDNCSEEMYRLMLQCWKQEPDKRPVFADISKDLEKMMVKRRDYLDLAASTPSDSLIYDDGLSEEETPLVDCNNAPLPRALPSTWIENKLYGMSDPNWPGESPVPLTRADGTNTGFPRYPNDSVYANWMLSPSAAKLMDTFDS
Chain of Serine/threonine-protein kinase MARK1 (Homo sapiens) (Q9P0L2 whole entry, looked up): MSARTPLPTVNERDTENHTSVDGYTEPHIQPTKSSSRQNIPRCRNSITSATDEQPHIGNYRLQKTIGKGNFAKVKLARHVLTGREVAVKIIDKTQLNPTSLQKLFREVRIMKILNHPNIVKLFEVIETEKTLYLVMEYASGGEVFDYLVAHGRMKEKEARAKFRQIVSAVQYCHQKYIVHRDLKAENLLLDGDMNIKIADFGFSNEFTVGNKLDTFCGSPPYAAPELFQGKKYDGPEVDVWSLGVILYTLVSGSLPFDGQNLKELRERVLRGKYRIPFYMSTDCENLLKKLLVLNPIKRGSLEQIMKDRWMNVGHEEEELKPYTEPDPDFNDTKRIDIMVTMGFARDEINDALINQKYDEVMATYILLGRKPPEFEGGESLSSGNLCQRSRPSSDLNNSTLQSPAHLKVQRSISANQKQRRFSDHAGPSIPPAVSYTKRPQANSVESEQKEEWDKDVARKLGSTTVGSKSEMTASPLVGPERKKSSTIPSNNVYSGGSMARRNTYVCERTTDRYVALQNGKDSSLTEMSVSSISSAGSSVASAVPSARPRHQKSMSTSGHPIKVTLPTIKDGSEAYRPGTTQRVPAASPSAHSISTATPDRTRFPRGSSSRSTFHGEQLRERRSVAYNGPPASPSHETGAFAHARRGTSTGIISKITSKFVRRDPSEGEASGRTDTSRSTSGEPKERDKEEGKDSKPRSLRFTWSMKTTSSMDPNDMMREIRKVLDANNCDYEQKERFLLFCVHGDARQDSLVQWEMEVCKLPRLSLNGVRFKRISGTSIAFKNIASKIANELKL
Chain of Tyrosine-protein kinase Lyn (Homo sapiens) (P07948 2-512 limits assumed): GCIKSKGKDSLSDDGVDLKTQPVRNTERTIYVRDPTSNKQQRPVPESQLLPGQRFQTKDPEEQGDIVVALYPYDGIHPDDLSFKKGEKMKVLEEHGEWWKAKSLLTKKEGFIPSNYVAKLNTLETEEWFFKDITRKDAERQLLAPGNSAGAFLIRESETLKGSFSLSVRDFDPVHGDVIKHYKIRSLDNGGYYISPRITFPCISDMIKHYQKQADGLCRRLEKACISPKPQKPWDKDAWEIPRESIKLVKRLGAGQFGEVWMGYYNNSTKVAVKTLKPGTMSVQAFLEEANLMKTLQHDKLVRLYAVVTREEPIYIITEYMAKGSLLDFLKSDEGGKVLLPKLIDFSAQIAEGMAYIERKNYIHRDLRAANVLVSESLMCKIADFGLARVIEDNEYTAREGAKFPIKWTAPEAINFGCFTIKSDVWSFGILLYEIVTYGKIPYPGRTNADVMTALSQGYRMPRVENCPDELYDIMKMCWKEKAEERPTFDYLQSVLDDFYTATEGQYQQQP
Chain of Cyclin-dependent kinase 18 (Homo sapiens) (Q07002 whole entry, the tested form may be a part): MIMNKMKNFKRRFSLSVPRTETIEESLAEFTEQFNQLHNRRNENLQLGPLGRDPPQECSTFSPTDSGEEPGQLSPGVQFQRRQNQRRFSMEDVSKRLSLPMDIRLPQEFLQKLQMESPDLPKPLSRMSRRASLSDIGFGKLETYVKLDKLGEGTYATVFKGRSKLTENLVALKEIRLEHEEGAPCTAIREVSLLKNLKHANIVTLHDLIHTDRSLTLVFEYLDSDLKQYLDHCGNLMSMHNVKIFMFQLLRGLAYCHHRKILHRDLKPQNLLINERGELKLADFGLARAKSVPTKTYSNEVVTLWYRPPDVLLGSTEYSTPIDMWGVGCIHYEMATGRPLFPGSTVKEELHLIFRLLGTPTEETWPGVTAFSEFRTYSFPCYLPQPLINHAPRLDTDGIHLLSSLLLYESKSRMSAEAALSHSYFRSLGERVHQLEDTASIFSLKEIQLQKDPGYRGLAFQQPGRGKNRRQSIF
Chain of Mitogen-activated protein kinase 8 (Homo sapiens) (P45983 whole entry): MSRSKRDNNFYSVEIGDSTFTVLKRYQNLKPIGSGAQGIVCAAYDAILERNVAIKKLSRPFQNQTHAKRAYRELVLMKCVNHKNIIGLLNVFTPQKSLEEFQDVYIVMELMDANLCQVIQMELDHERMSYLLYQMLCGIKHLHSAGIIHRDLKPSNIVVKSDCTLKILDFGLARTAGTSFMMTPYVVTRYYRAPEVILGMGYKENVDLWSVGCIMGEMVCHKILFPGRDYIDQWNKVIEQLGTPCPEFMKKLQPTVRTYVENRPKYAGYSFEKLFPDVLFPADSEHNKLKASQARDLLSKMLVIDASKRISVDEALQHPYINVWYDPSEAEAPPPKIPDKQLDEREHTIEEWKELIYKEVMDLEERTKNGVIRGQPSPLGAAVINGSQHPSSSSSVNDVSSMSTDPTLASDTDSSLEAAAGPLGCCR

Nc1cnc(N2CCc3cc(S(=O)(=O)Nc4c(F)cc(Cl)cc4F)cc(N4CCCC4=O)c32)nc1
inactive: residual activity [1] 83% | residual activity [2] 91% | residual activity [3] 75% | residual activity [4] 99% | inhibition [5] 4.68% | inhibition [6] -3.08% | residual activity [7] 98% | inhibition [8] -1.96% | residual activity [9] 89% | residual activity [10] 95% | residual activity [11] 100% | residual activity [12] 100% | residual activity [13] 75% | residual activity [14] 100% | residual activity [15] 93% | residual activity [16] 97% | inhibition [17] -1.24% | residual activity [18] 100% | residual activity [19] 100% | residual activity [20] 60% | inhibition [21] -5.02% | residual activity [22] 76% | residual activity [23] 78% | residual activity [24] 100% | residual activity [25] 100% | residual activity [26] 100% | residual activity [27] 100% | inhibition [28] -2.69% | residual activity [29] 100% | residual activity [30] 100% | residual activity [31] 89% | residual activity [32] 100% | residual activity [33] 80% | residual activity [34] 79% | residual activity [35] 100% | residual activity [36] 88% | residual activity [37] 100% | residual activity [38] 90% | residual activity [39] 100% | residual activity [40] 74% | residual activity [41] 90% | residual activity [42] 96% | residual activity [43] 100% | residual activity [44] 99%

Cn1nc(C(F)(F)F)cc1-c1cnc(N2CCc3cc(S(=O)(=O)Nc4c(F)cc(Cl)cc4F)cc(N4CCCC4=O)c32)nc1 [TP-020]
inactive: residual activity [1] 94% | residual activity [2] 87% | residual activity [3] 99% | residual activity [4] 97% | inhibition [5] 4.33% | inhibition [6] 17.4% | residual activity [7] 86% | inhibition [8] 35.9% | residual activity [9] 100% | residual activity [10] 86% | residual activity [11] 91% | residual activity [12] 88% | residual activity [13] 79% | residual activity [14] 75% | residual activity [15] 95% | residual activity [16] 100% | inhibition [17] 28.7% | residual activity [18] 100% | residual activity [19] 84% | residual activity [20] 94% | inhibition [21] 9.09% | residual activity [22] 92% | residual activity [23] 100% | residual activity [24] 100% | residual activity [25] 100% | residual activity [26] 100% | residual activity [27] 98% | inhibition [28] 10.2% | residual activity [29] 100% | residual activity [30] 94% | residual activity [31] 89% | residual activity [32] 96% | residual activity [33] 99% | residual activity [34] 88% | residual activity [35] 100% | residual activity [36] 100% | residual activity [37] 100% | residual activity [38] 97% | residual activity [39] 100% | residual activity [40] 100% | residual activity [41] 100% | residual activity [42] 100% | residual activity [43] 96% | residual activity [44] 68%
